# Experimental data reported in PubChem BioAssay (NCI).
#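 96-well plates; 48 h exposure; 5 concentrations. Endpoints by linear interpolation between flanking doses. Not reached: highest tested concentration assigned. TGI is the concentration that stops growth completely.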
# Legend:
# Test in all cases: NCI tumour cell line growth inhibition, 48 h
# 786-0 renal = system: 786-0 renal
# A498 renal = system: A498 renal
# A549 NSCLC = system: A549 NSCLC
# ACHN renal = system: ACHN renal
# CAKI-1 renal = system: CAKI-1 renal
# CCRF-CEM leukemia = system: CCRF-CEM leukemia
# COLO 205 colon = system: COLO 205 colon
# DLD-1 colon = system: DLD-1 colon
# DMS 114 small cell lung = system: DMS 114 small cell lung
# DMS 273 small cell lung = system: DMS 273 small cell lung
# EKVX NSCLC = system: EKVX NSCLC
# HCC-2998 colon = system: HCC-2998 colon
# HCT-116 colon = system: HCT-116 colon
# HCT-15 colon = system: HCT-15 colon
# HL-60(TB) leukemia = system: HL-60(TB) leukemia
# HOP-18 NSCLC = system: HOP-18 NSCLC
# HOP-62 NSCLC = system: HOP-62 NSCLC
# HOP-92 NSCLC = system: HOP-92 NSCLC
# HT29 colon = system: HT29 colon
# IGROV1 ovarian = system: IGROV1 ovarian
# KM12 colon = system: KM12 colon
# KM20L2 colon = system: KM20L2 colon
# LOX IMVI melanoma = system: LOX IMVI melanoma
# LXFL 529 NSCLC = system: LXFL 529 NSCLC
# M14 melanoma = system: M14 melanoma
# M19-MEL melanoma = system: M19-MEL melanoma
# MALME-3M melanoma = system: MALME-3M melanoma
# MOLT-4 leukemia = system: MOLT-4 leukemia
# NCI-H226 lung = system: NCI-H226 lung
# NCI-H460 lung = system: NCI-H460 lung
# NCI-H522 lung = system: NCI-H522 lung
# OVCAR-3 ovarian = system: OVCAR-3 ovarian
# OVCAR-4 ovarian = system: OVCAR-4 ovarian
# OVCAR-5 ovarian = system: OVCAR-5 ovarian
# OVCAR-8 ovarian = system: OVCAR-8 ovarian
# RPMI-8226 leukemia = system: RPMI-8226 leukemia
# RXF 393 renal = system: RXF 393 renal
# RXF-631 renal = system: RXF-631 renal
# SF-268 CNS = system: SF-268 CNS
# SF-295 CNS = system: SF-295 CNS
# SF-539 CNS = system: SF-539 CNS
# SK-MEL-28 melanoma = system: SK-MEL-28 melanoma
# SK-MEL-5 melanoma = system: SK-MEL-5 melanoma
# SK-OV-3 ovarian = system: SK-OV-3 ovarian
# SN12C renal = system: SN12C renal
# SNB-19 CNS = system: SNB-19 CNS
# SNB-75 CNS = system: SNB-75 CNS
# SNB-78 CNS = system: SNB-78 CNS
# SR leukemia = system: SR leukemia
# SW-620 colon = system: SW-620 colon
# TK-10 renal = system: TK-10 renal
# U251 CNS = system: U251 CNS
# UACC-257 melanoma = system: UACC-257 melanoma
# UACC-62 melanoma = system: UACC-62 melanoma
# UO-31 renal = system: UO-31 renal
# K-562 leukemia = system: K-562 leukemia
# NCI-H23 lung = system: NCI-H23 lung
# SK-MEL-2 melanoma = system: SK-MEL-2 melanoma
# XF 498 CNS = system: XF 498 CNS
compound,measurement,setting,value
CC1=C2C3OC(=O)C(C)C3C(O)C[C@@]2(C)C(=O)CC1 (stereo partly drawn),TGI,786-0 renal,> 100 µM
same,TGI,A498 renal,> 100 µM
same,TGI,A549 NSCLC,> 100 µM
same,TGI,ACHN renal,> 100 µM
same,TGI,CAKI-1 renal,> 100 µM
same,TGI,CCRF-CEM leukemia,> 100 µM
same,TGI,COLO 205 colon,> 100 µM
same,TGI,DLD-1 colon,> 100 µM
same,TGI,DMS 114 small cell lung,> 100 µM
same,TGI,DMS 273 small cell lung,> 100 µM
same,TGI,EKVX NSCLC,> 100 µM
same,TGI,HCC-2998 colon,> 100 µM
same,TGI,HCT-116 colon,> 100 µM
same,TGI,HCT-15 colon,> 100 µM
same,TGI,HL-60(TB) leukemia,> 100 µM
same,TGI,HOP-18 NSCLC,> 100 µM
same,TGI,HOP-62 NSCLC,> 100 µM
same,TGI,HOP-92 NSCLC,> 100 µM
same,TGI,HT29 colon,> 100 µM
same,TGI,IGROV1 ovarian,> 100 µM
same,TGI,KM12 colon,> 100 µM
same,TGI,KM20L2 colon,> 100 µM
same,TGI,LOX IMVI melanoma,> 100 µM
same,TGI,LXFL 529 NSCLC,> 100 µM
same,TGI,M14 melanoma,> 100 µM
same,TGI,M19-MEL melanoma,> 100 µM
same,TGI,MALME-3M melanoma,> 100 µM
same,TGI,MOLT-4 leukemia,> 100 µM
same,TGI,NCI-H226 lung,> 100 µM
same,TGI,NCI-H460 lung,> 100 µM
same,TGI,NCI-H522 lung,> 100 µM
same,TGI,OVCAR-3 ovarian,> 100 µM
same,TGI,OVCAR-4 ovarian,> 100 µM
same,TGI,OVCAR-5 ovarian,> 100 µM
same,TGI,OVCAR-8 ovarian,> 100 µM
same,TGI,RPMI-8226 leukemia,> 100 µM
same,TGI,RXF 393 renal,> 100 µM
same,TGI,RXF-631 renal,> 100 µM
same,TGI,SF-268 CNS,> 100 µM
same,TGI,SF-295 CNS,> 100 µM
same,TGI,SF-539 CNS,> 100 µM
same,TGI,SK-MEL-28 melanoma,> 100 µM
same,TGI,SK-MEL-5 melanoma,> 100 µM
same,TGI,SK-OV-3 ovarian,> 100 µM
same,TGI,SN12C renal,> 100 µM
same,TGI,SNB-19 CNS,> 100 µM
same,TGI,SNB-75 CNS,> 100 µM
same,TGI,SNB-78 CNS,> 100 µM
same,TGI,SR leukemia,> 100 µM
same,TGI,SW-620 colon,> 100 µM
same,TGI,TK-10 renal,> 100 µM
same,TGI,U251 CNS,> 100 µM
same,TGI,UACC-257 melanoma,> 100 µM
same,TGI,UACC-62 melanoma,> 100 µM
same,TGI,UO-31 renal,> 100 µM
CCCCCC/C(CC(=O)CCC(=O)NCCc1ccccc1)=N\Nc1ccc([N+](=O)[O-])cc1[N+](=O)[O-],TGI,786-0 renal,> 100 µM
same,TGI,A498 renal,> 100 µM
same,TGI,A549 NSCLC,> 100 µM
same,TGI,ACHN renal,> 100 µM
same,TGI,CAKI-1 renal,> 100 µM
same,TGI,CCRF-CEM leukemia,60.6 µM
same,TGI,COLO 205 colon,> 100 µM
same,TGI,DLD-1 colon,> 100 µM
same,TGI,DMS 114 small cell lung,56.4 µM
same,TGI,DMS 273 small cell lung,> 100 µM
same,TGI,EKVX NSCLC,> 100 µM
same,TGI,HCC-2998 colon,> 100 µM
same,TGI,HCT-116 colon,> 100 µM
same,TGI,HCT-15 colon,> 100 µM
same,TGI,HL-60(TB) leukemia,70.5 µM
same,TGI,HOP-18 NSCLC,> 100 µM
same,TGI,HOP-62 NSCLC,> 100 µM
same,TGI,HOP-92 NSCLC,> 100 µM
same,TGI,HT29 colon,> 100 µM
same,TGI,IGROV1 ovarian,> 100 µM
same,TGI,K-562 leukemia,> 100 µM
same,TGI,KM12 colon,> 100 µM
same,TGI,KM20L2 colon,> 100 µM
same,TGI,LOX IMVI melanoma,> 100 µM
same,TGI,LXFL 529 NSCLC,> 100 µM
same,TGI,M14 melanoma,> 100 µM
same,TGI,M19-MEL melanoma,> 100 µM
same,TGI,MALME-3M melanoma,> 100 µM
same,TGI,MOLT-4 leukemia,60.3 µM
same,TGI,NCI-H226 lung,> 100 µM
same,TGI,NCI-H23 lung,> 100 µM
same,TGI,NCI-H460 lung,> 100 µM
same,TGI,NCI-H522 lung,> 100 µM
same,TGI,OVCAR-3 ovarian,> 100 µM
same,TGI,OVCAR-5 ovarian,> 100 µM
same,TGI,OVCAR-8 ovarian,> 100 µM
same,TGI,RPMI-8226 leukemia,81.7 µM
same,TGI,RXF 393 renal,> 100 µM
same,TGI,RXF-631 renal,> 100 µM
same,TGI,SF-268 CNS,> 100 µM
same,TGI,SF-295 CNS,> 100 µM
same,TGI,SF-539 CNS,> 100 µM
same,TGI,SK-MEL-2 melanoma,> 100 µM
same,TGI,SK-MEL-28 melanoma,> 100 µM
same,TGI,SK-MEL-5 melanoma,> 100 µM
same,TGI,SK-OV-3 ovarian,> 100 µM
same,TGI,SN12C renal,> 100 µM
same,TGI,SNB-19 CNS,> 100 µM
same,TGI,SNB-78 CNS,> 100 µM
same,TGI,SR leukemia,67.7 µM
same,TGI,SW-620 colon,> 100 µM
same,TGI,TK-10 renal,> 100 µM
same,TGI,U251 CNS,> 100 µM
same,TGI,UACC-257 melanoma,> 100 µM
same,TGI,UACC-62 melanoma,> 100 µM
same,TGI,UO-31 renal,> 100 µM
Cc1c(Cl)cccc1NC(=O)C(=O)c1c(O)c2ccc(O)cc2oc1=O,TGI,786-0 renal,> 100 µM
same,TGI,A498 renal,> 100 µM
same,TGI,A549 NSCLC,> 100 µM
same,TGI,ACHN renal,> 100 µM
same,TGI,CAKI-1 renal,> 100 µM
same,TGI,CCRF-CEM leukemia,> 100 µM
same,TGI,COLO 205 colon,> 100 µM
same,TGI,DLD-1 colon,> 100 µM
same,TGI,DMS 114 small cell lung,> 100 µM
same,TGI,DMS 273 small cell lung,> 100 µM
same,TGI,EKVX NSCLC,> 100 µM
same,TGI,HCC-2998 colon,> 100 µM
same,TGI,HCT-116 colon,> 100 µM
same,TGI,HCT-15 colon,> 100 µM
same,TGI,HL-60(TB) leukemia,> 100 µM
same,TGI,HOP-18 NSCLC,> 100 µM
same,TGI,HOP-62 NSCLC,> 100 µM
same,TGI,HOP-92 NSCLC,> 100 µM
same,TGI,HT29 colon,> 100 µM
same,TGI,IGROV1 ovarian,> 100 µM
same,TGI,K-562 leukemia,> 100 µM
same,TGI,KM12 colon,> 100 µM
same,TGI,KM20L2 colon,> 100 µM
same,TGI,LOX IMVI melanoma,> 100 µM
same,TGI,LXFL 529 NSCLC,> 100 µM
same,TGI,M14 melanoma,> 100 µM
same,TGI,M19-MEL melanoma,> 100 µM
same,TGI,MALME-3M melanoma,> 100 µM
same,TGI,MOLT-4 leukemia,> 100 µM
same,TGI,NCI-H226 lung,> 100 µM
same,TGI,NCI-H23 lung,> 100 µM
same,TGI,NCI-H460 lung,> 100 µM
same,TGI,NCI-H522 lung,> 100 µM
same,TGI,OVCAR-3 ovarian,> 100 µM
same,TGI,OVCAR-4 ovarian,> 100 µM
same,TGI,OVCAR-5 ovarian,> 100 µM
same,TGI,OVCAR-8 ovarian,> 100 µM
same,TGI,RXF 393 renal,> 100 µM
same,TGI,SF-268 CNS,> 100 µM
same,TGI,SF-295 CNS,> 100 µM
same,TGI,SF-539 CNS,> 100 µM
same,TGI,SK-MEL-2 melanoma,> 100 µM
same,TGI,SK-MEL-28 melanoma,> 100 µM
same,TGI,SK-MEL-5 melanoma,> 100 µM
same,TGI,SK-OV-3 ovarian,> 100 µM
same,TGI,SN12C renal,> 100 µM
same,TGI,SNB-19 CNS,> 100 µM
same,TGI,SNB-75 CNS,> 100 µM
same,TGI,SNB-78 CNS,> 100 µM
same,TGI,SR leukemia,> 100 µM
same,TGI,SW-620 colon,> 100 µM
same,TGI,TK-10 renal,> 100 µM
same,TGI,U251 CNS,> 100 µM
same,TGI,UACC-257 melanoma,> 100 µM
same,TGI,UACC-62 melanoma,> 100 µM
same,TGI,UO-31 renal,> 100 µM
same,TGI,XF 498 CNS,> 100 µM
